This assay addresses T1, CRTH2 (Homo sapiens, UniProt Q9Y5Y4).
T1 sequence (Q9Y5Y4 1-395): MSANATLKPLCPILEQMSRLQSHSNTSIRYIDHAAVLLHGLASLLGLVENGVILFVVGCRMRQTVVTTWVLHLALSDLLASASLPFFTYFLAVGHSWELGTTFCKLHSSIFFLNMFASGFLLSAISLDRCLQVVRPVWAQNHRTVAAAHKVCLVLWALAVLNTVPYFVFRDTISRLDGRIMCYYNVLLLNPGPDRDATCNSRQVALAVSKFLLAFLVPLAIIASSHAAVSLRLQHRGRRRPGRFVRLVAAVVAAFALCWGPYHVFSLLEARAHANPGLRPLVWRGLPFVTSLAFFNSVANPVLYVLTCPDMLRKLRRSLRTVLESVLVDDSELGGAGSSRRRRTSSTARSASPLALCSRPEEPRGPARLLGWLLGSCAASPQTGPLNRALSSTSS
Briefly: Radioligand binding Scintillation Proximity Assay ([3H]PGD2, hCRTH2-CHO cell membranes). Set-up: host or cells: CHO cells. Conditions: 1.5 nM [3H]PGD2, hCRTH2-CHO membranes, SPA; read-out: IC50 binding. Here is the method: Adherent CHO cells expressing hCRTH2 (Euroscreen, Belgium) were cultured in 225 cm2 cell culture flasks (Corning, USA) in 30 ml of medium. After two rinses of phosphate buffered saline (PBS), cells were harvested in 10 ml of PBS containing 1 mM EDTA, centrifuged at 500×g for 5 min at 4° C. and frozen at −80° C. The pellet was re-suspended in 50 mM Tris-HCl, pH 7.4, 2 mM EDTA, 250 mM Sucrose, containing protease inhibitor cocktail tablets, (Complete EDTA-free, Roche, Germany) and incubated 30 min at 4° C. Cells were disrupted by nitrogen cavitation (Parr Instruments, USA) at 4° C. (800 p.s.i. for 30 min), and centrifuged at 500×g for 10 min at 4° C. Pellet containing nuclei and cellular debris was discarded and supernatant was centrifuged 60 min at 4° C. at 45000×g. Membrane pellet was re-suspended in storage buffer (10 mM HEPES/KOH pH 7.4, 1 mM EDTA, 250 mM sucrose, protease inhibitor cocktail tablets) using Dounce homogenization and frozen in liquid nitrogen, and stored at −80° C.
The inhibitory activity can be investigated by a radioligand binding Scintillation Proximity Assay (SPA) (Sawyer et al., Br. J. Pharmocol 2002, 137, 1163-72). The SPA radioligand binding assay was performed at room temperature in binding buffer (10 mM HEPES/KOH pH 7.4, 10 mM MnC12, with protease inhibitor cocktail tablets), containing 1.5 nM [3H]PGD2 (Perkin Elmer), 10-50 μg/ml of hCRTH2—CHO cell membrane protein and 2 mg/ml of Wheat-germ agglutinin Scintillation Proximity Assay beads (RPNQ0001, GE-Healthcare) in a final volume of 100 μl in 96 well plates (Corning, USA). Non-specific binding was determined in the presence of 10 μM PGD2 (Cayman, USA). Competing Compounds of Formula (I) were diluted in dimethylsulphoxide so that the total volume of dimethylsulfoxide was kept constant at 1% dimethylsulphoxide (Me2SO). Serial dilutions of 100 μM to 100 pM were prepared and 10 μl each of the compounds of Formula (I) stock solutions were added to the binding assay reagents and incubated for 90 min with agitation at room temperature. Binding activity was determined by using a 1450 Micro-beta scintillation counter (Wallac, UK).
Background: Scintillation proximity formats need no separation of bound from free tracer.

By IC50 is commonly meant the point on the concentration scale where inhibition reaches its midpoint.

As for `CN1C(=O)N(Cc2cn(-c3ccccc3)nc2-c2ccccc2)C(=O)C12C(=O)N(CC(=O)O)c1ccc(Cl)cc12` (centres unmarked) [Example 6, [5′-chloro-1-[(1,3-diphenyl-1H-pyrazol-4-yl)methyl]-3-methyl-2,2′,5-trioxospiro[imidazolidine-4,3′-indol]1′(2′H)-yl]acetic acid], the half-maximal inhibitory concentration (IC50) worked out at 123 nM. For the compound `CN1C(=O)N(Cc2csc(-c3ccccc3)n2)C(=O)C12C(=O)N(CC(=O)O)c1ccc(Cl)cc12` (centres unmarked) [Example 8, [5′-chloro-3-methyl-2,2′,5-trioxo-1-[(2-phenyl-1,3-thiazol-4-yl)methyl] Spiro[imidazolidine-4,3′-indol]-1′(2′H)-yl]acetic acid], the IC50 was 44 nM. The same measure for `CN1C(=O)N(Cc2cc(F)ccc2F)C(=O)C12C(=O)N(CC(=O)O)c1ccc(Cl)cc12` (centres unmarked) [Example 10, [5′-chloro-1-(2,5-difluorobenzyl)-3-methyl-2,2′,5-trioxospiro[imidazolidine-4,3′-indol]-1′(2′H)-yl]acetic acid]: 498 nM; for `CCN1C(=O)N(Cc2cc(Cl)ccc2F)C(=O)C12C(=O)N(CC(=O)O)c1ccc(Cl)cc12` (single isomer, unassigned; (+)) [Example 3, [(+)-5′-chloro-1-(5-chloro-2-fluorobenzyl)-3-ethyl-2,2′,5-trioxospiro[imidazolidine-4,3′-indol]-1′(2′H)-yl]acetic acid]: 336 nM.

Take `CN1C(=O)N(CCc2cccc(F)c2)C(=O)C12C(=O)N(CC(=O)O)c1ccc(Cl)cc12` (centres unmarked) [Example 13, [15′-chloro-1-[2-(3-fluorophenyl)ethyl]-3-methyl-2,2′,5-trioxospiro[imidazolidine-4,3′-indol]-1′(2′H)-yl]acetic acid]: the 50% inhibitory concentration (IC50) was 916 nM. For the compound `CN1C(=O)N(CCc2ccccc2F)C(=O)C12C(=O)N(CC(=O)O)c1ccc(Cl)cc12` (centres unmarked) [Example 14, [15′-chloro-1-[2-(2-fluorophenyl)ethyl]-3-methyl-2,2′,5-trioxospiro[imidazolidine-4,3′-indol]-1′(2′H)-yl]acetic acid], the 50% inhibitory concentration (IC50) was found to be 940 nM.

`CN1C(=O)N(Cc2nc3ccccc3s2)C(=O)C12C(=O)N(CC(=O)O)c1ccc(Cl)cc12` (centres unmarked) [Example 11, [1-(1,3-benzothiazol-2-ylmethyl)-5′-chloro-3-methyl-2,2′,5-trioxospiro[imidazolidine-4,3′-indol]-1′(2′H)-yl]acetic acid]: the IC50 was 945 nM. `CC(C)c1nc(CN2C(=O)N(C)C3(C2=O)C(=O)N(CC(=O)O)c2ccc(Cl)cc23)cs1` (centres unmarked) [Example 5, [5′-chloro-1-[(2-isopropyl-1,3-thiazol-4-yl)methyl]-3-methyl-2,2′,5-trioxospiro[imidazolidine-4,3′-indol]-1′(2′H)-yl]acetic acid]: the IC50 amounted to 628 nM. The figure for `CN1C(=O)N(CCc2ccccc2Cl)C(=O)C12C(=O)N(CC(=O)O)c1ccc(Cl)cc12` (centres unmarked) [Example 12, [5′-chloro-1-[2-(2-chlorophenyl)ethyl]-3-methyl-2,2′,5-trioxospiro[imidazolidine-4,3′-indol]-1′(2′H)-yl]acetic acid] is 740 nM; for `CN1C(=O)N(CCc2cccc(Cl)c2)C(=O)C12C(=O)N(CC(=O)O)c1ccc(Cl)cc12` (centres unmarked) [Example 15, [15′-chloro-1-[2-(3-chlorophenyl)ethyl]-3-methyl-2,2′,5-trioxospiro[imidazolidine-4,3′-indol]-1′(2′H)-yl]acetic acid] it is 551 nM; for `CN1C(=O)N(Cc2cc(Cl)ccc2F)C(=O)C12C(=O)N(CC(=O)O)c1ccc(Cl)cc12` (centres unmarked) [Example 1, [5′-chloro-1-(5-chloro-2-fluorobenzyl)-3-methyl-2,2′,5-trioxospiro[imidazolidine-4,3′-indol]-1′(2′H)-yl]acetic acid] it is 62 nM.

For `Cc1onc(-c2ccccc2)c1CN1C(=O)N(C)C2(C1=O)C(=O)N(CC(=O)O)c1ccc(Cl)cc12` (centres unmarked) [Example 7, [5′-chloro-3-methyl-1-[(5-methyl-3-phenylisoxazol-4-yl)methyl]-2,2′,5-trioxospiro[imidazolidine-4,3′-indol]-1′(2′H)-yl]acetic acid], the IC50 came to 148 nM. The same measure for `CCCN1C(=O)N(Cc2cc(Cl)ccc2F)C(=O)C12C(=O)N(CC(=O)O)c1ccc(Cl)cc12` (single isomer, unassigned) [Example 4]: 144 nM. As for `COc1c(C)cnc(CN2C(=O)N(C)C3(C2=O)C(=O)N(CC(=O)O)c2ccc(Cl)cc23)c1C` (centres unmarked) [Example 9, [5′-chloro-1-[(4-methoxy-3,5-dimethylpyridin-2-yl)methyl]-3-methyl-2,2′,5-trioxospiro[imidazolidine-4,3′-indol]-1′(2′H)-yl]acetic acid], the half-maximal inhibitory concentration (IC50) was determined as 363 nM.

Source of the values: patent US20120115895A1, “TRICYCLIC INDOLE-DERIVED SPIRO DERIVATIVES AS CRTH2 MODULATORS” (Merck Serono S.A., priority 2009, published 2012).
